The values below come from publication PMC5466188 (Biotechnology Reports, 2014).

Sequence of Acetylcholinesterase (AChE, from electric eel) (O42275 24-633): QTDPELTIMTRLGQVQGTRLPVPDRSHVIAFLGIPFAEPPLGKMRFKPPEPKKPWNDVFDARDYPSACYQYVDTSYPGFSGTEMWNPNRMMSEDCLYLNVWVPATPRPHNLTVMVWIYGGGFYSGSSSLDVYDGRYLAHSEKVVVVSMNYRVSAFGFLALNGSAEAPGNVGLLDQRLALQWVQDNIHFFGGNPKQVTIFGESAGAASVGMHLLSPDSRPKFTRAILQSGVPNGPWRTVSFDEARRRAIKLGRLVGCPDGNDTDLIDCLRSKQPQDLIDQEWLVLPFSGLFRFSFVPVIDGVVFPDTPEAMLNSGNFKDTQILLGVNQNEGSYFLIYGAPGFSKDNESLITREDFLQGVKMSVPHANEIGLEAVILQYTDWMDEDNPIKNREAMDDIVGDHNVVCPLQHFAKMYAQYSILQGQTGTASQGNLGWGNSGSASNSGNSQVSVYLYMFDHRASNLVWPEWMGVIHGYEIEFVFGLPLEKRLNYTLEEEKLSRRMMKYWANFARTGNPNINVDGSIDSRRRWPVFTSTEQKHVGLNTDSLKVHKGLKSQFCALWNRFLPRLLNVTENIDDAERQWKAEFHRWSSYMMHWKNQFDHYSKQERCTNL

This experiment has as its target Acetylcholinesterase (AChE, from electric eel) (Electrophorus electricus, UniProt O42275). The experiment in a line: In vitro AChE inhibition assay. The experiment is classed as biochemical.
Take `CC1=C(C(=O)NC(=O)c2cnccn2)C(c2cccc([N+](=O)[O-])c2)NC(=S)N1` (stereo not drawn) [Compound 4d, 6-Methyl-4-(3-nitrophenyl)-N-(pyrazin-2-ylcarbonyl)-2-thioxo-1,2,3,4-tetrahydropyrimidine-5-carboxamide]: the IC50 was found to be 1820 ± 10 nM.

As to `CC1=C(C(=O)NC(=O)c2cnccn2)C(c2ccc(Cl)cc2)NC(=S)N1` (stereo not drawn) [Compound 4j, 4-(4-Chlorophenyl)-6-methyl-N-(pyrazin-2-ylcarbonyl)-2-thioxo-1,2,3,4-tetrahydropyrimidine-5-carboxamide], the IC50 was found to be 880 ± 10 nM.

On to `CC1=C(C(=O)NC(=O)c2cnccn2)C(c2ccccc2)NC(=S)N1` (stereo not drawn) [Compound 4b, 6-Methyl-4-phenyl-N-(pyrazin-2-ylcarbonyl)-2-thioxo-1,2,3,4-tetrahydropyrimidine-5-carboxamide], for which the IC50 came to 5260 ± 10 nM.

In the case of `CC1=C(C(=O)NC(=O)c2cnccn2)C(c2ccc(F)cc2)NC(=S)N1` (stereo not drawn) [Compound 4h, 4-(4-Fluorophenyl)-6-methyl-N-(pyrazin-2-ylcarbonyl)-2-thioxo-1,2,3,4-tetrahydropyrimidine-5-carboxamide], the IC50 was 750 ± 10 nM.

The compound `CC1=C(C(=O)NC(=O)c2cnccn2)C(c2ccncc2)NC(=O)N1` (stereo not drawn) [Compound 4k, 6-Methyl-2-oxo-N-(pyrazin-2-ylcarbonyl)-4-(pyridin-4-yl)-1,2,3,4-tetrahydropyrimidine-5-carboxamide] had an IC50 of 190 ± 10 nM.

`CC1=C(C(=O)NC(=O)c2cnccn2)C(c2ccc(F)cc2)NC(=O)N1` (stereo not drawn) [Compound 4g, 4-(4-Fluorophenyl)-6-methyl-2-oxo-N-(pyrazin-2-ylcarbonyl)-1,2,3,4-tetrahydropyrimidine-5-carboxamide] came in with an IC50 of 860 ± 10 nM.

With `CC1=C(C(=O)NC(=O)c2cnccn2)C(c2ccncc2)NC(=S)N1` (stereo not drawn) [Compound 4l, 6-Methyl-N-(pyrazin-2-ylcarbonyl) -4-(pyridin-4-yl) -2-thioxo-1,2,3,4-tetrahydropyrimidine-5-carboxamide], the 50% inhibitory concentration (IC50) worked out at 110 ± 10 nM.

As to `CC1=C(C(=O)NC(=O)c2cnccn2)C(c2cccc([N+](=O)[O-])c2)NC(=O)N1` (stereo not drawn) [Compound 4c, 6-Methyl-4-(3-nitrophenyl)-2-oxo-N-(pyrazin-2-ylcarbonyl)-1,2,3,4-tetrahydropyrimidine-5-carboxamide], the IC50 was 2540 ± 10 nM.

`CC1=C(C(=O)NC(=O)c2cnccn2)C(c2cccc(Cl)c2)NC(=S)N1` (stereo not drawn) [Compound 4f, 4-(3-Chlorophenyl)-6-methyl-N-(pyrazin-2-ylcarbonyl)-2-thioxo-1,2,3,4-tetrahydropyrimidine-5-carboxamide] came in with an IC50 of 1050 ± 10 nM.

Turning to `CC1=C(C(=O)NC(=O)c2cnccn2)C(c2ccccc2)NC(=O)N1` (stereo not drawn) [Compound 4a, 6-Methyl-2-oxo-4-phenyl-N-(pyrazin-2-ylcarbonyl)-1,2,3,4-tetrahydropyrimidine-5-carboxamide], the IC50 turned out to be 5350 ± 10 nM.

`CC1=C(C(=O)NC(=O)c2cnccn2)C(c2cccc(Cl)c2)NC(=O)N1` (stereo not drawn) [Compound 4e, 4-(3-Chlorophenyl)-6-methyl-2-oxo-N-(pyrazin-2-ylcarbonyl)-1,2,3,4-tetrahydropyrimidine-5-carboxamide] came in with an IC50 of 1210 ± 10 nM.

With `CC1=C(C(=O)NC(=O)c2cnccn2)C(c2ccc(Cl)cc2)NC(=O)N1` (stereo not drawn) [Compound 4i, 4-(4-Chlorophenyl)-6-methyl-2-oxo-N-(pyrazin-2-ylcarbonyl)-1,2,3,4-tetrahydropyrimidine-5-carboxamide], the IC50 turned out to be 940 ± 10 nM.
